Experiment [1] has as its system HeLaS3 cells. The experiment can be described thus: Measurement of cytotoxicity on cultivated human tumour cells (AlamarBlue). Conditions: HeLa in Table 1; unit inferred. Type of experiment: cell-based. As for the experimental part:
The activity of the compounds according to the invention was determined in the cytotoxicity test on cultivated human tumour cells and/or in a FACS analysis, for example on HeLaS3 cells.
Measurement of Cytotoxicity on Cultivated Human Tumour Cells
To measure the cytotoxicity on cultivated human tumour cells, cells of the cervical cancer tumour cell line HeLaS3 (obtained from American Type Culture Collection (ATCC)) in Ham's F12 Medium (Life Technologies) and 10% foetal calf serum (Life Technologies) were cultivated and harvested in the logarithmic growth phase. Then the HeLaS3 cells were placed in 96-well plates (Costar) at a density of 1000 cells per well and incubated overnight in an incubator (at 37° C. and 5% CO2), while on each plate 6 wells were filled only with medium (3 wells as a control of the medium, 3 wells for incubation with reduced AlamarBlue). The active substances were added to the cells in various concentrations (dissolved in DMSO; final concentration: 1%) (in each case as a triple measurement). After 72 hours' incubation, 20 μl of AlamarBlue (AccuMed International) were added to each well, and the cells were incubated for a further 7 hours. As a control, 20 μl of reduced Alamar Blue (AlamarBlue reagent which had been autoclaved for 30 min) were added to 3 wells. After 7 h incubation the colour change of the AlamarBlue reagent in the individual wells was determined in a Perkin Elmer fluorescence spectrophotometer (excitation 530 nm, emission 590 nm, slits 15, integrate time 0.1). The amount of AlamarBlue reagent reacted represents the metabolic activity of the cells. The relative cell activity was calculated as a percentage of the control (HeLa S3 cells without inhibitor) and the active substance concentration which inhibits the cell activity by 50% (IC^50) was obtained. The values were calculated from the average of three individual measurements, correcting for the control value (medium control).

Experiment [2] deals with H460-VINC. The experiment can be described thus: Cytotoxicity on H460-VINC cells (Table 1; method not given). Type of experiment: cell-based. The conditions noted are these: H460-VINC of Table 1; unit inferred.

Consider 45 compounds from patent US7786299B2, “Methods for treating diseases or conditions using dihydropteridinone compounds” (Boehringer Ingelheim Pharma GmbH & Co. KG, priority 2003, dated 2010).

The structures appear in SMILES notation. pIC50: −log10 of the molar value.

For the compound `CC1C(=O)N(C)c2cnc(Nc3ccc(C(=O)NCCCN4CCOCC4)cc3)nc2N1C1CCCC1` (stereo not drawn) [Example 69], the pIC50 was 7.26 in experiment [1] and 6.20 in experiment [2].
As to `COc1cc(C(=O)NC2CC(C)(C)N(C)C(C)(C)C2)ccc1Nc1ncc2c(n1)N(C1CCCC1)[C@H](C)C(=O)N2C` [Example 30], the pIC50 is 7.92 in experiment [1] and 6.24 in experiment [2].
As to `CCN1CCC(NC(=O)c2ccc(Nc3ncc4c(n3)N(C3CCCC3)C(C)C(=O)N4C)c(OC)c2)CC1` (stereo not drawn) [Example 17], the pIC50 in experiment [1] is 7.62; in experiment [2], 6.14.
As for `COc1cc(C(=O)NC2CCN(Cc3ccccc3)CC2)ccc1Nc1ncc2c(n1)N(C1CCCCC1)C(C)C(=O)N2C` (stereo not drawn) [Example 115], the pIC50 in experiment [1] is 7.80; in experiment [2], 7.12.
Consider `CC[C@@H]1C(=O)N(C)c2cnc(Nc3ccc(C(=O)NCCCN4CCCCC4)cc3OC)nc2N1CCC(C)C` [Example 169], for which the negative-log IC50 (pIC50) in experiment [1] is 7.36; in experiment [2], 6.30.
The matching figures for `CC[C@@H]1C(=O)N(C)c2cnc(Nc3ccc(C(=O)NC4CCN(C)CC4)cc3OC)nc2N1c1ccccc1` [Example 88]: 7.70 and 5.99.
As for `CCC1C(=O)N(C)c2cnc(Nc3ccc(C(=O)NC4CCC(N5CCOCC5)CC4)cc3OC)nc2N1C(C)C` (stereo not drawn) [Example 27], the negative logarithm of the IC50 (pIC50) in experiment [1] is 7.85; in experiment [2] it was 6.79.
Consider `COc1cc(C(=O)NC(C)(C)CN2CCCC2)ccc1Nc1ncc2c(n1)N(C1CCCCC1)[C@H](C)C(=O)N2C` [Example 87], for which the negative logarithm of the IC50 (pIC50) was 7.54 in experiment [1] and 7.18 in experiment [2].
As for `CCC1C(=O)N(C)c2cnc(Nc3ccc(C(=O)NC4CCC(N5CCCCC5)CC4)cc3OC)nc2N1C1CCCC1` (stereo not drawn) [Example 128], the negative-log IC50 (pIC50) in experiment [1] is 7.82; in experiment [2] it was 6.55.
On to `CCC1C(=O)N(C)c2cnc(Nc3ccc(C(=O)NC4CCC(N5CCOCC5)CC4)cc3OC)nc2N1C1CCCC1` (stereo not drawn) [Example 131], for which the pIC50 in experiment [1] was 7.64; in experiment [2], 7.00.
With `CC[C@@H]1C(=O)N(C)c2cnc(Nc3ccc(C(=O)NCCC4CCCN4C)cc3OC)nc2N1CCC(C)C` (stereo partly drawn) [Example 167], the results for the pIC50 in experiment [1] and in experiment [2] were 7.47 and 6.09, respectively.
`COc1cc(C(=O)NC2CCN(C)CC2)ccc1Nc1ncc2c(n1)N(c1ccccc1)[C@H](C)C(=O)N2C` [Example 41]: the pIC50 in experiment [1] was 7.08; in experiment [2], not above 5.52.
Turning to `COc1cc(C(=O)NCC(C)(C)CN(C)C)ccc1Nc1ncc2c(n1)N(C1CCCC1)C(C)C(=O)N2C` (stereo not drawn) [Example 60], the values for the pIC50 in experiment [1] and in experiment [2] were 7.39 and 6.72, respectively.
Take `COc1cc(C(=O)NCCN2CCCCC2)ccc1Nc1ncc2c(n1)N(C1CCCC1)C(C)C(=O)N2C` (stereo not drawn) [Example 66]: the pIC50 in experiment [1] is 7.19; in experiment [2], 6.60.
As to `CCC1C(=O)N(C)c2cnc(Nc3ccc(C(=O)NC4CCC(N5CCCCC5)CC4)cc3OC)nc2N1C(C)C` (stereo not drawn) [Example 129], the negative logarithm of the IC50 (pIC50) in experiment [1] is 7.46; in experiment [2], 6.19.
Taken in the same sequence, the figures for `COc1cc(C(=O)N[C@H]2CC[C@H](N3CCOCC3)CC2)ccc1Nc1ncc2c(n1)N(C1CCCC1)[C@H](C)C(=O)N2C` [Example 40] were 7.42 and 6.73.
As for `CCC1C(=O)N(C)c2cnc(Nc3ccc(C(=O)NC4CCC(N5CCOCC5)CC4)cc3OC)nc2N1C(C)C` (stereo not drawn) [Example 28], the figures for the negative-log IC50 (pIC50) in experiment [1] and in experiment [2] were 7.74 and 6.80, respectively.
The matching figures for `CC[C@@H]1C(=O)N(C)c2cnc(Nc3ccc(C(=O)NC(C)(C)CN(C)C)cc3OC)nc2N1CCC(C)C` [Example 90]: 7.49 and 6.86.
`COc1cc(C(=O)NCCCN2CCOCC2)ccc1Nc1ncc2c(n1)N(C1CCCC1)C(C)C(=O)N2C` (stereo not drawn) [Example 63]: the pIC50 in experiment [1] was 7.09; in experiment [2], 6.69.
In the case of `CCC1C(=O)N(C)c2cnc(Nc3ccc(C(=O)NC(C)(C)CN4CCCC4)cc3OC)nc2N1C1CCCC1` (stereo not drawn) [Example 55], the pIC50 was 7.89 in experiment [1] and 7.07 in experiment [2].
Turning to `COc1cc(C(=O)NC2CC3CCC(C2)N3C)ccc1Nc1ncc2c(n1)N(C1CCCCC1)[C@H](C)C(=O)N2C` (stereo partly drawn) [Example 91], the negative logarithm of the IC50 (pIC50) in experiment [1] is 7.39; in experiment [2], 5.75.
As to `CC(C)N1c2nc(Nc3ccc(C(=O)NC4CC(C)(C)N(C)C(C)(C)C4)cc3)ncc2N(C)C(=O)[C@H]1C` [Example 33], the pIC50 in experiment [1] was 7.01; in experiment [2], not above 5.52.
Consider `CCC1C(=O)N(C)c2cnc(Nc3ccc(C(=O)NC4CCN(C)CC4)cc3OC)nc2N1C1CCCC1` (stereo not drawn) [Example 46], for which the pIC50 in experiment [1] is 7.92; in experiment [2], 6.68.
In the case of `COc1cc(C(=O)NC2CCN(C)CC2)ccc1Nc1ncc2c(n1)N(C1CCCC1)[C@H](C)C(=O)N2C` [Example 80], the pIC50 is 7.42 in experiment [1] and 6.54 in experiment [2].
Take `CCC1C(=O)N(C)c2cnc(Nc3ccc(C(=O)NC4CC5CCC(C4)N5C)cc3OC)nc2N1C1CCCC1` (stereo not drawn) [Example 45]: the values for the pIC50 in experiment [1] and in experiment [2] were 7.66 and 6.10, respectively.
With `CC(C)N1CCC(NC(=O)c2ccc(Nc3ncc4c(n3)N(CC(C)(C)C)C(C)C(=O)N4C)cc2)CC1` (stereo not drawn) [Example 12], the values for the pIC50 in experiment [1] and in experiment [2] were 7.00 and 5.97, respectively.
As to `C[C@@H]1C(=O)N(C)c2cnc(Nc3ccc(C(=O)NC4CCN(C)CC4)cc3)nc2N1C1CCCCC1` [Example 85], the figures for the negative-log IC50 (pIC50) in experiment [1] and in experiment [2] were 7.60 and 6.12, respectively.
The matching figures for `CCN(CC)CCNC(=O)c1ccc(Nc2ncc3c(n2)N(C2CCCC2)C(C)C(=O)N3C)c(OC)c1` (stereo not drawn) [Example 62]: 7.24 and 6.27.
On to `COc1cc(C(=O)NC2CCC(N3CCCCC3)CC2)ccc1Nc1ncc2c(n1)N(C1CCCC1)C(C)C(=O)N2C` (stereo not drawn) [Example 16], for which the negative logarithm of the IC50 (pIC50) in experiment [1] was 7.77; in experiment [2] it was 6.32.
As for `COc1cc(C(=O)N[C@H]2CC[C@H](N3CCOCC3)CC2)ccc1Nc1ncc2c(n1)N(CCC(C)C)[C@H](C)C(=O)N2C` [Example 38], the pIC50 in experiment [1] was 7.06; in experiment [2], 6.56.
The matching figures for `CC1C(=O)N(C)c2cnc(Nc3ccc(C(=O)NC4CC5CCC(C4)N5C)cc3)nc2N1C1CCCC1` (stereo not drawn) [Example 68]: 7.04 and 5.91.
With `CC[C@@H]1C(=O)N(C)c2cnc(Nc3ccc(C(=O)NCCCN(C)C)cc3OC)nc2N1CCC(C)C` [Example 164], the pIC50 is 7.52 in experiment [1] and 6.01 in experiment [2].
As to `COc1cc(C(=O)NCC(C)(C)CN(C)C)ccc1Nc1ncc2c(n1)N(C1CCCCC1)[C@H](C)C(=O)N2C` [Example 86], the pIC50 in experiment [1] is 7.42; in experiment [2], 7.62.
The matching figures for `COc1cc(C(=O)NC2CCC(N(C)C)CC2)ccc1Nc1ncc2c(n1)N(C1CCCC1)C(C)C(=O)N2C` (stereo not drawn) [Example 13]: 7.59 and 5.88.
Consider `CC[C@@H]1C(=O)N(C)c2cnc(Nc3ccc(C(=O)NCC(C)(C)CN(C)C)cc3OC)nc2N1CCC(C)C` [Example 168], for which the figures for the pIC50 in experiment [1] and in experiment [2] were 7.38 and 7.06, respectively.
The matching figures for `CCC1C(=O)N(C)c2cnc(Nc3ccc(C(=O)NC4CCC(N5CCCC5)CC4)cc3OC)nc2N1C1CCCC1` (stereo not drawn) [Example 19]: 7.89 and 6.13.
With `CC[C@@H]1C(=O)N(C)c2cnc(Nc3ccc(C(=O)NCCN(C(C)C)C(C)C)cc3OC)nc2N1CCC(C)C` [Example 160], the results for the pIC50 in experiment [1] and in experiment [2] were 7.43 and 6.14, respectively.
Take `CCN1CCC(NC(=O)c2ccc(Nc3ncc4c(n3)N(C3CCCC3)C(C)C(=O)N4C)cc2)CC1` (stereo not drawn) [Example 18]: the figures for the pIC50 in experiment [1] and in experiment [2] were 7.40 and 5.75, respectively.
Consider `CC[C@@H]1C(=O)N(C)c2cnc(Nc3ccc(C(=O)NC4CCN(C)CC4)cc3OC)nc2N1C1CCCCC1` [Example 96], for which the negative logarithm of the IC50 (pIC50) was 7.96 in experiment [1] and 6.24 in experiment [2].
Turning to `COc1cc(C(=O)NCCN2CCOCC2)ccc1Nc1ncc2c(n1)N(C1CCCC1)C(C)C(=O)N2C` (stereo not drawn) [Example 65], the pIC50 is 7.28 in experiment [1] and 6.67 in experiment [2].
As to `COc1cc(C(=O)NC(C)(C)CN2CCCC2)ccc1Nc1ncc2c(n1)N(C1CCCC1)C(C)C(=O)N2C` (stereo not drawn) [Example 49], the pIC50 in experiment [1] is 7.23; in experiment [2], 6.28.
Regarding `CCN1CC[C@@H](NC(=O)c2ccc(Nc3ncc4c(n3)N(CCC(C)C)[C@H](C)C(=O)N4C)c(OC)c2)C1` [Example 37], the pIC50 was 7.14 in experiment [1] and 6.12 in experiment [2].
Regarding `COc1cc(C(=O)NCCCN(C)C)ccc1Nc1ncc2c(n1)N(C1CCCC1)[C@H](C)C(=O)N2C` [Example 75], the pIC50 is 7.34 in experiment [1] and 6.25 in experiment [2].
Taken in the same sequence, the figures for `COc1cc(C(=O)NC2CCN(C)CC2)ccc1Nc1ncc2c(n1)N(CCC(C)C)C(C)C(=O)N2C` (stereo not drawn) [Example 146] were 7.18 and 6.02.
As to `COc1cc(C(=O)NC2CCN(C)CC2)ccc1Nc1ncc2c(n1)N(CC(C)(C)C)C(C)C(=O)N2C` (stereo not drawn) [Example 145], the results for the pIC50 in experiment [1] and in experiment [2] were 7.37 and not above 5.52, respectively.

As a reminder, the pIC50 is the negative decadic logarithm of the IC50, by convention in mol/L. Read a high pIC50 as a low IC50.
